# Results taken from US6723830B2, “Short peptides which selectively modulate the activity of protein kinases” (Children's Medical Center Corporation, priority 1998, dated 2004).
# * marks the point of attachment. Myristoyl = CCCCCCCCCCCCCC(=O)*
# Experiments:
# [1] = Appetite suppression: food intake and body weight in mice; assay type: in vivo; conditions: C57BL mice
# Protocol: Male CB6F1 or C57BL mice (Harlan), about 2-4 months old, were fed a pelleted rodent maintenance diet (Koffolk, Tel Aviv, Israel, 19520). The food containers for each group were weighed daily and the average food consumption was calculated per mouse per day.
# During the experimental period, the mice were injected intraperitoneally once a day for two consecutive days, 4 mg/mouse, with K085D102 (a Jak2-derived peptide from the αD region) solubilized in 10% DMSO in PBS+0.1% BSA in a volume of 0.2 ml. The control groups were injected with 0.2 ml of the vehicle only.
# FIGS. 4 and 5 illustrate the results obtained with CB6F1 mice while Table II summarizes the results obtained with C57BL mice.
# B16 melanoma cells = test: Induction of melanogenesis in B16 melanoma cells, observed by eye; assay type: cell-based, mouse; conditions: 5 days incubation; increase in black pigment seen by eye; FIG. 7
# Protocol: B16 melanoma cells (a mouse tumor cell line) were cultured in a 24-well plate, 10^5 cells/well, in the presence of various concentrations of K085D102, a Jak2-derived peptide from the αD region. After 5 days incubation in DMEM+10% fetal calf serum under standard conditions, the plate was observed by eye for melanogenesis. Melanogenesis induction was visualized by an increase in the amount of the black pigment in the well. The results are illustrated in FIG. 7 and clearly show a dose response down to a concentration as low as 0.15 μM of the Jak2 peptide of the αD region present in the well.
# [2] = system: Human endothelial cells (HEC cells); test: Proliferation of human endothelial cells (methylene blue cell count); assay type: cell-based; conditions: concentration at which significant inhibition of cell proliferation was observed; 72-80 hours incubation
# Protocol: (§1) Human endothelial cells (referred to herein as “HEC cells”) are the cell line described by Schweitzer et al., Laboratory Investigation 76(1):25 (1997). Human prostate cancer cells (PC3) were obtained by the procedures disclosed in Arbiser et al., Proc. Natl. Acad. Sci. 94:861 (1997), the teachings of which are incorporated herein by reference.
# (§2) 96 well, flat bottom, tissue culture microtiter plates were pre-coated with gelatin (Difco) immediately prior to cell plating by adding 0.100 ml/well of freshly filtered 1% gelatin in glass double distilled water (DDW). The wells were incubated for about 1 hour at 37° C., and then the excess solution was removed by aspiration.
# (§3) Culture medium was prepared from DMEM, penicillin/streptomycin/glutamine (penicillin—100 U/ml; streptomycin—100 μμg/mL; and glutamine—2 mM) and 10% endotoxin free bovine calf serum (Hyclone). A suspension of the cell type being tested at 25×10^3 cells/ml was prepared in the above described culture medium and distributed 0.160 ml/well (about 4000 endothelial cells/well).
# (§4) A series of αD peptide stock solutions was prepared by diluting a 10 mM solution of the αD peptide in 100% DMSO with phosphate buffered saline (PBS) containing 0.1% BSA. […]
# (§5) The wells were washed one time with borate buffer (0.1 M, pH 8.5). […] After extracting overnight, the O.D. was read at 630 nm to determine the number of cells per well. […]
# [3] = system: Human prostate cancer cells (PC3); test: Proliferation of human prostate cancer cells PC3 (methylene blue cell count); assay type: cell-based; conditions: concentration at which significant inhibition of cell proliferation was observed; 72-80 hours incubation
# Protocol: as §1, §2, §3, §4, §5
# CD4+ T cells = test: Th1/Th2 bioassay: IL-4 and IFNγ secretion by ELISA; assay type: cell-based, Balb/c mice; conditions: CD4+ T cells incubated 5 days with 0.4, 2 or 10 μM peptide; 24 hour re-stimulation; FIG. 6
# Protocol: 0.5×10^6 small resting CD4+ T cells were isolated from lymph nodes of 8 week-old Balb/c mice. These CD4+ T cells were incubated for 5 days in 2 ml culture medium in 24 well plates coated with anti-CD3 and anti-CD28 antibodies: (5 μg/ml and 2 μg/ml, respectively). 0.4, 2 or 10 μM Jak-derived peptides, initially in 10 μl DMSO, were present in the medium during the 5 day activation period. Control wells contained 10 μl of DMSO (the solvent of the peptide).
# At the end of the 5 day stimulation period, the medium was replaced with fresh medium containing 10 u/ml IL-2 and the cells were removed from the antibody-coated wells to uncoated wells for a 3 day “rest” and expansion period. Under these stimulating and rest conditions, the differentiation process led to the acquisition of Th2 phenotype (high IL-4 and low IFNγ production upon secondary challenge).
# At the end of the rest period, the cells were removed, washed and counted. 0.5×10^6 cells were re-stimulated in 1 ml of culture medium by incubation for 24 hours on anti-CD3-+anti-CD28-coated 24 well plates. At the end of the 24 hour re-stimulation period, the supernatant was removed and the level of secreted IL-4 and IFNγ was determined by ELISA. The results were expressed as u/ml or pg/ml of IL-4 and IFNγ respectively, which were secreted into the culture medium by 0.5×10^6 cells during the re-stimulation period.
# fresh adipocytes = test: Glucose uptake (3H-deoxy glucose) by adipose tissue cells; assay type: cell-based, rats; conditions: 10 μM peptide
# Protocol: To 3 ml of buffer with 10 mg collagenase, 3 g epididymal fat pad (from 2-3 male rats) was introduced. The fat was cut up with scissors. The pieces of fat were swirled and shaken in a 37° C. water bath set at 100-150 repetitions/minute for approximately 1 hour with swirling every 15 minutes while digesting and every 5 minutes towards the end. About 6 ml of buffer was added to the vial.
# A 250μ nylon mesh over the top was secured with a rubber band and the contents of the container were gently squeezed into a 50 ml plastic tube. The total volume for each wash was 15 ml.
# The tube was centrifuged. The adipose cells floated to the top of the liquid. The buffer was removed using a 35 ml metal-tipped syringe with a needle. Buffer was added to 15 ml and the clumps of cells were gently broken up by mixing up and down in the syringe. This process was repeated for a total of 4 centrifugations at 1000 with the last centrifugation at 2000 rpm. At this point, any fat was removed from the top of the cells.
# Buffer and dilute cell suspension with buffer were removed to cytocrit of 5-10%. The cells were kept at 37° C. for 1 hour.
# 500 μl buffer was added with or without additives (insulin 10-10,000 μU/ml, peptides 0.1-10 μM) to 10 ml plastic tubes.
# 500 μl aliquots of the cell suspension were added to the tubes.
# After incubation for 30 minutes at 37° C. in a shaking water bath (approximately 300 strokes/minute), 200 μl of buffer containing 3H—Deoxy Glucose (approx. 1200 cpm/μl) was added to each tube.
# After 30 minutes incubation with 3H-DOG at 37° C., 200 μl aliquots were transferred to microcentrifuge tubes containing 200 μl Dinonyl phthalate. Cells were rapidly separated from the aqueous buffer by centrifugation at 10,000 g for 30-60 sec. Cells separated in the top layer from the aqueous buffer by Dinonyl phthalate.
# Cell associated radioactivity was counted in a liquid scintillation counter.
# Glucose-uptake was measured in fresh adipocytes, incubated with or without insulin (10 μU) as described above, in the absence (control) or the presence of 10 μM of peptide K094D101 (derived from the αD region of IRK).
# [4] = 4 mg/mouse intraperitoneally once a day for two consecutive days, treatment day 1
# [5] = 4 mg/mouse intraperitoneally once a day for two consecutive days, treatment day 2
# [6] = recovery after two days of treatment
substance,measurement,setting,value
"K085D102: a Jak2-derived peptide from the αD region, SEQ ID NO:143 (GLRDYLQKHKERI), N-myristylated, C-amidated (Myristoyl-GLRDYLQKHKERI-NH2; SMILES CCCCCCCCCCCCCC(=O)NCC(=O)N[C@@H](CC(C)C)C(=O)N[C@@H](CCCNC(=N)N)C(=O)N[C@@H](CC(=O)O)C(=O)N[C@@H](Cc1ccc(O)cc1)C(=O)N[C@@H](CC(C)C)C(=O)N[C@@H](CCC(N)=O)C(=O)N[C@@H](CCCCN)C(=O)N[C@@H](Cc1c[nH]cn1)C(=O)N[C@@H](CCCCN)C(=O)N[C@@H](CCC(=O)O)C(=O)N[C@@H](CCCNC(=N)N)C(=O)N[C@H](C(N)=O)[C@@H](C)CC)","% change in body wt. (relative to day 0), treatment day 1",[1]; [4],94%
same,"Food Intake (g/mouse/day), treatment day 1",[1]; [4],0.24 g/mouse/day
same,"% change in body wt. (relative to day 0), treatment day 2",[1]; [5],95%
same,"Food Intake (g/mouse/day), treatment day 2",[1]; [5],1.43 g/mouse/day
same,"Food Intake (g/mouse/day), baseline",[1]; baseline before treatment,3.16 g/mouse/day
same,"% change in body wt. (relative to day 0), day 0",[1]; day 0 (reference),100%
same,"% change in body wt. (relative to day 0), recovery",[1]; [6],97%
same,"Food Intake (g/mouse/day), recovery",[1]; [6],3.62 g/mouse/day
same,Melanogenesis induction: lowest concentration showing dose response,B16 melanoma cells,0.15 µM
"K086D101: Jak3 αD region peptide, SEQ ID NO:145 (GMEYLPSGSLRDFLQRHRAL), N-myristylated, C-amidated (Myristoyl-GMEYLPSGSLRDFLQRHRAL-NH2; SMILES CCCCCCCCCCCCCC(=O)NCC(=O)N[C@@H](CCSC)C(=O)N[C@@H](CCC(=O)O)C(=O)N[C@@H](Cc1ccc(O)cc1)C(=O)N[C@@H](CC(C)C)C(=O)N1CCC[C@H]1C(=O)N[C@@H](CO)C(=O)NCC(=O)N[C@@H](CO)C(=O)N[C@@H](CC(C)C)C(=O)N[C@@H](CCCNC(=N)N)C(=O)N[C@@H](CC(=O)O)C(=O)N[C@@H](Cc1ccccc1)C(=O)N[C@@H](CC(C)C)C(=O)N[C@@H](CCC(N)=O)C(=O)N[C@@H](CCCNC(=N)N)C(=O)N[C@@H](Cc1c[nH]cn1)C(=O)N[C@@H](CCCNC(=N)N)C(=O)N[C@@H](C)C(=O)N[C@@H](CC(C)C)C(N)=O)",S.I.* (μM) for HEC Cells,[2],0.6 µM
same,S.I.* (μM) for PC3 Cells,[3],0.6 µM
"K086D102: Jak3 peptide derived from the αD region, SEQ ID NO:146 (GMEYLPSGSLRDFLQRHRARL), N-myristylated, C-amidated (Myristoyl-GMEYLPSGSLRDFLQRHRARL-NH2; SMILES CCCCCCCCCCCCCC(=O)NCC(=O)N[C@@H](CCSC)C(=O)N[C@@H](CCC(=O)O)C(=O)N[C@@H](Cc1ccc(O)cc1)C(=O)N[C@@H](CC(C)C)C(=O)N1CCC[C@H]1C(=O)N[C@@H](CO)C(=O)NCC(=O)N[C@@H](CO)C(=O)N[C@@H](CC(C)C)C(=O)N[C@@H](CCCNC(=N)N)C(=O)N[C@@H](CC(=O)O)C(=O)N[C@@H](Cc1ccccc1)C(=O)N[C@@H](CC(C)C)C(=O)N[C@@H](CCC(N)=O)C(=O)N[C@@H](CCCNC(=N)N)C(=O)N[C@@H](Cc1c[nH]cn1)C(=O)N[C@@H](CCCNC(=N)N)C(=O)N[C@@H](C)C(=O)N[C@@H](CCCNC(=N)N)C(=O)N[C@@H](CC(C)C)C(N)=O)",IFNγ production (Th1 conversion),CD4+ T cells,increase
same,IL-4 production (Th1 conversion),CD4+ T cells,decrease
"K094D101: peptide derived from the αD region of IRK; SEQ ID NO:137 by list order, possibly SEQ ID NO:136 (myristylated) (Myristoyl-AQNNPGRPPPTL-NH2; SMILES CCCCCCCCCCCCCC(=O)N[C@@H](C)C(=O)N[C@@H](CCC(N)=O)C(=O)N[C@@H](CC(N)=O)C(=O)N[C@@H](CC(N)=O)C(=O)N1CCC[C@H]1C(=O)NCC(=O)N[C@@H](CCCNC(=N)N)C(=O)N1CCC[C@H]1C(=O)N1CCC[C@H]1C(=O)N1CCC[C@H]1C(=O)N[C@H](C(=O)N[C@@H](CC(C)C)C(N)=O)[C@@H](C)O)","Glucose uptake, % of Control, +Insulin 10 μU/ml",fresh adipocytes; insulin 10 μU/ml,67&
same,"Glucose-Update: Mean DPM ± SEM of Quadruplicates, +Insulin 10 μU/ml",fresh adipocytes; insulin 10 μU/ml,"1,210 ± 110 DPM"
same,"Glucose uptake, % of Control, −Insulin",fresh adipocytes; without insulin,67%
same,"Glucose-Update: Mean DPM ± SEM of Quadruplicates, −Insulin",fresh adipocytes; without insulin,775 ± 72 DPM
